# Test results taken from patent US9284333B2, “Fused pyrroledicarboxamides and their use as pharmaceuticals” (SANOFI, priority 2012, dated 2016).
# Molecular target: Human TASK-1 channels (Homo sapiens (Human), UniProt O14649)
# Assay: Determination of the activity on the TASK-1 channel in Xenopus oocytes (two-microelectrode voltage clamp)
# Assay type: cell-based
# Conditions: compound concentration 5 μM
# Summary of the method: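 Xenopus oocytes were injected with human TASK-1 cRNA and recorded two days later by two-microelectrode voltage clamp, holding at −90 mV with 500 ms steps to 40 mV. Superfusion used ND96, pH 7.4, at room temperature, with rising compound concentrations; percentage inhibition of control current was fitted to a dose-response curve for IC50.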
# Human TASK-1 channels, sequence (O14649 whole entry): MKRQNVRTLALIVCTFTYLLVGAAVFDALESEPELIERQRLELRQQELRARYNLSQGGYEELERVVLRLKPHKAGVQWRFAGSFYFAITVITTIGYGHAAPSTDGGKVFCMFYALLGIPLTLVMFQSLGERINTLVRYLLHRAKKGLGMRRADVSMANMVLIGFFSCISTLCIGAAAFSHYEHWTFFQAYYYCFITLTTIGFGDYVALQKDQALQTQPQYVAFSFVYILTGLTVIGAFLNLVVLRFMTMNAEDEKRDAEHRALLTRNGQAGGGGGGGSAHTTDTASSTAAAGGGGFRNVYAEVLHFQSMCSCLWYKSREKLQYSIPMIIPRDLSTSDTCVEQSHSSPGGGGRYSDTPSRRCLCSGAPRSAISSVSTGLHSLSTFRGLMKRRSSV
row,Structure (SMILES),inhibition at 5 µM [%]
1,"CC[C@H](NC(=O)c1cc(C(=O)N2CCC[C@@H]2C)n2c1COCC2)c1ccc(C(F)(F)F)c(F)c1 [16bn, 6-((S)-2-Methyl-pyrrolidine-1-carbonyl)-3,4-dihydro-1H-pyrrolo[2,1-c][1,4]oxazine-8-carboxylic acid [(S)-1-(3-fluoro-4-trifluoromethyl-phenyl)-propyl]-amide]",63

# Same assay, conditions: human TASK-1 expressed in Xenopus oocytes, room temperature; read-out: IC50 value for TASK-1 inhibition
row,Structure (SMILES),IC50 [nM]
1,"CC[C@@H](NC(=O)c1cc(C(=O)NCc2cc(OC)cc(OC)c2)n2c1COCC2)c1ccccc1 [16gz, 3,4-Dihydro-1H-pyrrolo[2,1-c][1,4]oxazine-6,8-dicarboxylic acid 6-(3,5-dimethoxy-benzylamide) 8-[((R)-1-phenyl-propyl)-amide]]",2200
2,"CC(C)[C@@H](NC(=O)c1cc(C(=O)N2CCC[C@@H]2C)c2n1CCOC2)c1ccc(F)cc1 [16lj, 8-((S)-2-Methyl-pyrrolidine-1-carbonyl)-3,4-dihydro-1H-pyrrolo[2,1-c][1,4]oxazine-6-carboxylic acid [(R)-1-(4-fluoro-phenyl)-2-methyl-propyl]-amide]",200
3,"CC[C@@H](NC(=O)c1cc(C(=O)N[C@H](CC)c2ccccc2)n2c1COCC2)c1ccc(C(F)(F)F)nc1 [16jy, 3,4-Dihydro-1H-pyrrolo[2,1-c][1,4]oxazine-6,8-dicarboxylic acid 6-[((R)-1-phenyl-propyl)-amide] 8-{[(R)-1-(6-trifluoromethyl-pyridin-3-yl)-propyl]-amide}]",180
4,"CC[C@@H](NC(=O)c1cc(C(=O)N2CCC[C@@H]2C)n2c1COCC2)c1cccc(C#N)n1 [16ah, 6-((S)-2-Methyl-pyrrolidine-1-carbonyl)-3,4-dihydro-1H-pyrrolo[2,1-c][1,4]oxazine-8-carboxylic acid [(R)-1-(6-cyano-pyridin-2-yl)-propyl]-amide]",3200
5,"CC[C@@H](NC(=O)c1cc(C(=O)N2CCCC2C(C)n2cccn2)n2c1COCC2)c1ccccc1 (stereo partly drawn) [16fw, 6-[2-(1-Pyrazol-1-yl-ethyl)-pyrrolidine-1-carbonyl]-3,4-dihydro-1H-pyrrolo[2,1-c][1,4]oxazine-8-carboxylic acid ((R)-1-phenyl-propyl)-amide]",420
6,"CC[C@@H](NC(=O)c1cc(C(=O)NCC(C)C)n2c1COCC2)c1ccccc1 [16gf, 3,4-Dihydro-1H-pyrrolo[2,1-c][1,4]oxazine-6,8-dicarboxylic acid 6-isobutylamide 8-[((R)-1-phenyl-propyl)-amide]]",340
7,"CC[C@@H](NC(=O)c1cc(C(=O)N2CCC[C@@H]2C)n2c1COCC2)c1ccc(C(F)(F)F)nc1Cl [16cc, 6-((S)-2-Methyl-pyrrolidine-1-carbonyl)-3,4-dihydro-1H-pyrrolo[2,1-c][1,4]oxazine-8-carboxylic acid [(R)-1-(2-chloro-6-trifluoromethyl-pyridin-3-yl)-propyl]-amide]",65
8,"CC[C@@H](NC(=O)c1cc(C(=O)N2CCN(c3ccccn3)CC2)n2c1COCC2)c1ccccc1 [16fq, 6-(4-Pyridin-2-yl-piperazine-1-carbonyl)-3,4-dihydro-1H-pyrrolo[2,1-c][1,4]oxazine-8-carboxylic acid ((R)-1-phenyl-propyl)-amide]",1100
9,"CC[C@@H](NC(=O)c1cc(C(=O)N2CCC[C@@H]2COC)c2n1CCOC2)c1ccccc1 [16kk, 8-((R)-2-Methoxymethyl-pyrrolidine-1-carbonyl)-3,4-dihydro-1H-pyrrolo[2,1-c][1,4]oxazine-6-carboxylic acid ((R)-1-phenyl-propyl)-amide]",130
10,"CC[C@@H](NC(=O)c1cc(C(=O)N2CCCC2c2cc(C)no2)n2c1COCC2)c1ccccc1 (stereo partly drawn) [16eq, 6-[2-(3-Methyl-isoxazol-5-yl)-pyrrolidine-1-carbonyl]-3,4-dihydro-1H-pyrrolo[2,1-c][1,4]oxazine-8-carboxylic acid ((R)-1-phenyl-propyl)-amide]",480
11,"CC[C@@H](NC(=O)c1cc(C(=O)N2CCC[C@@H]2C)n2c1COCC2)c1ccc(OC(F)(F)F)cc1 [16aw, 6-((S)-Methyl-pyrrolidine-1-carbonyl)3,4-dihydro-1H-pyrrolo[2,1-c][1,4]oxazine-8-carboxylic acid [(R)-1-(4-trifluoromethoxy-phenyl)-propyl]-amide]",280
12,"CC[C@@H](NC(=O)c1cc(C(=O)NCc2ncccn2)c2n1CCOC2)c1ccccc1 [16jm, 3,4-Dihydro-1H-pyrrolo[2,1-c][1,4]oxazine-6,8-dicarboxylic acid 6-[((R)-1-phenyl-propyl)-amide] 8-[(pyrimidin-2-ylmethyl)-amide]]",1500
13,"CC(C)[C@@H](NC(=O)c1cc(C(=O)N[C@@H](C)c2ncccn2)c2n1CCOC2)c1ccc(F)cc1 (racemic) [16lr, 3,4-Dihydro-1H-pyrrolo[2,1-c][1,4]oxazine-6,8-dicarboxylic acid 6-{[(R)-1-(4-fluoro-phenyl)-2-methyl-propyl]-amide} 8-[((S)-1-pyrimidin-2-yl-ethyl)-amide]]",360
14,"CC[C@@H](NC(=O)c1cc(C(=O)N2CCC[C@@H]2C)n2c1COCC2)c1ccc(F)cc1 [16az, 6-((S)-2-Methyl-pyrrolidine-1-carbonyl)-3,4-dihydro-1H-pyrrolo[2,1-c][1,4]oxazine-8-carboxylic acid [(R)-1-(4-fluoro-phenyl)-propyl]-amide]",120
15,"CC[C@@H](NC(=O)c1cc(C(=O)NCC2CC2)n2c1COCC2)c1ccccc1Cl [16ld, 3,4-Dihydro-1H-pyrrolo[2,1-c][1,4]oxazine-6,8-dicarboxylic acid 8-{[(R)-1-(2-chloro-phenyl)-propyl]-amide} 6-cyclopropylmethyl-amide]",80
16,"CCOC(=O)[C@H](C)N(C)C(=O)c1cc(C(=O)N[C@H](CC)c2ccccc2)c2n1CCOC2 [16l, (S)-2-{Methyl-[8-((R)-1-phenyl-propylcarbamoyl)-3,4-dihydro-1H-pyrrolo[2,1-c][1,4]oxazine-6-carbonyl]-amino}-propionic acid ethyl ester]",170
17,"CC[C@@H](NC(=O)c1cc(C(=O)N[C@H](C)C2CC2)n2c1COCC2)c1ccc(C(F)(F)F)nc1 [16nz, 3,4-Dihydro-1H-pyrrolo[2,1-c][1,4]oxazine-6,8-dicarboxylic acid 6-[((R)-1-cyclopropyl-ethyl)-amide] 8-{[(R)-1-(6-trifluoromethyl-pyridin-3-yl)-propyl]-amide}]",2200
18,"CC[C@@H](NC(=O)c1cc(C(=O)N2CCC[C@@H]2C)n2c1COCC2)c1cccc(C#N)c1 [16aj, 6-((S)-2-Methyl-pyrrolidine-1-carbonyl)-3,4-dihydro-1H-pyrrolo[2,1-c][1,4]oxazine-8-carboxylic acid [(R)-1-(3-cyano-phenyl)-propyl]-amide]",550
19,"CC[C@@H](NC(=O)c1cc(C(=O)N2CCC[C@@H]2C)n2c1COCC2)c1ccc(Br)s1 [16bg, 6-((S)-2-methyl-pyrrolidine-1-carbonyl)-3,4-dihydro-1H-pyrrolo[2,1-c][1,4]oxazine-8-carboxylic acid [(R)-1-(5-bromo-thiophen-2-yl)-propyl]-amide]",280
20,"CC[C@@H](NC(=O)c1cc(C(=O)N2CCC[C@@H]2C)n2c1COCC2)c1ccc(OC)c(Cl)c1 [16ch, 6-((S)-2-Methyl-pyrrolidine-1-carbonyl)-3,4-dihydro-1H-pyrrolo[2,1-c][1,4]oxazine-8-carboxylic acid [(R)-1-(3-chloro-4-methoxy-phenyl)-propyl]-amide]",73
21,"CC[C@@H](NC(=O)c1cc(C(=O)N2CC3CC3C2)n2c1COCC2)c1ccccc1 (stereo partly drawn) [16fe, 6-(3-Aza-bicyclo[3.1.0]hexane-3-carbonyl)-3,4-dihydro-1H-pyrrolo[2,1-c][1,4]oxazine-8-carboxylic acid ((R)-1-phenyl-propyl)-amide]",150
22,"CC[C@@H](NC(=O)c1cc(C(=O)NC(C)c2ncccn2)n2c1COCC2)c1ccccc1Cl (stereo partly drawn) [16nr, 3,4-Dihydro-1H-pyrrolo[2,1-c][1,4]oxazine-6,8-dicarboxylic acid 8-{[(R)-1-(2-chloro-phenyl)-propyl]-amide} 6-[(1-pyrimidin-2-yl-ethyl)-amide]]",310
23,"CC[C@@H](NC(=O)c1cc(C(=O)N2CCCC2c2ccn(C)n2)n2c1COCC2)c1ccccc1 (stereo partly drawn) [16fv, 6-[2-(1-Methyl-1H-pyrazol-3-yl)-pyrrolidine-1-carbonyl]-3,4-dihydro-1H-pyrrolo[2,1-c][1,4]oxazine-8-carboxylic acid ((R)-1-phenyl-propyl)-amide]",920
24,"C[C@@H](NC(=O)c1cc(C(=O)N[C@H](C)c2ccccc2F)c2n1CCOC2)c1ccc(F)cc1 [16dq, 3,4-Dihydro-1H-pyrrolo[2,1-c][1,4]oxazine-6,8-dicarboxylic acid 6-{[(R)-1-(4-fluoro-phenyl)-ethyl]-amide} 8-{[(R)-1-(2-fluoro-phenyl)-ethyl]-amide}]",220
25,"CC[C@@H](NC(=O)c1cc(C(=O)N2CCC[C@@H]2C)n2c1COCC2)c1ccc(C(F)(F)F)cc1 [16f, 6-((S)-2-Methyl-pyrrolidine-1-carbonyl)-3,4-dihydro-1H-pyrrolo[2,1-c][1,4]oxazine-8-carboxylic acid [(R)-1-(4-trifluoromethyl-phenyl)-propyl]-amide]",68
26,"CC[C@@H](NC(=O)c1cc(C(=O)NCc2ccno2)n2c1COCC2)c1ccccc1 [16hf, 3,4-Dihydro-1H-pyrrolo[2,1-c][1,4]oxazine-6,8-dicarboxylic acid 6-[(isoxazol-5-ylmethyl)-amide] 8-[((R)-1-phenyl-propyl)-amide]]",380
27,"CC[C@@H](NC(=O)c1cc(C(=O)N[C@H](CC)c2ccc(OC)nc2)n2c1COCC2)c1ccccc1 [16j, 3,4-Dihydro-1H-pyrrolo[2,1-c][1,4]oxazine-6,8-dicarboxylic acid 6-{[(R)-1-(6-methoxy-pyridin-3-yl)-propyl]-amide} 8-[((R)-1-phenyl-propyl)-amide]]",200
28,"CC[C@@H](NC(=O)c1cc(C(=O)N2CCC[C@@H]2C(F)(F)F)n2c1COCC2)c1ccccc1 [16eu, 6-((R)-2-Trifluoromethyl-pyrrolidine-1-carbonyl)-3,4-dihydro-1H-pyrrolo[2,1-c][1,4]oxazine-8-carboxylic acid ((R)-1-phenyl-propyl)-amide]",49
